Laboratory results reported in ChEMBL document CHEMBL3751753, “Synthesis and biological evaluation of 4-[(benzimidazol-1-yl) methyl]biphenyl-2-amides as dual angiotensin II and endothelin A receptor antagonists” (Medchemcomm, 2015).
Calls of active or inactive are those of the source. The calls are words filed in the database; no cut-off is given here.

Biological target: T1, Type-1 angiotensin II receptor (Homo sapiens, UniProt P30556)
T1 sequence (P30556 whole entry): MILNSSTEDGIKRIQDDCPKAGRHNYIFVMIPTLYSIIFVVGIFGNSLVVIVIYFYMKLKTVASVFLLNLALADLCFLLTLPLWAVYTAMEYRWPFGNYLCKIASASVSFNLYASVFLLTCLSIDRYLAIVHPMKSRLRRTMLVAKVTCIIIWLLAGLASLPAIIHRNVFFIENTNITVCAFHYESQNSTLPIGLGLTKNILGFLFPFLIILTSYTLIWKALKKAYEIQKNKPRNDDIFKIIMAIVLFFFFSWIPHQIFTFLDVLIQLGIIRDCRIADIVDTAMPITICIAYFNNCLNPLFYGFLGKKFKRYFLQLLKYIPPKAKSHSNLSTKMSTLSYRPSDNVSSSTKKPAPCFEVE
Assay: Displacement of 125I-labelled Sar1-Ile8-angiotensin-2 from human AT1 receptor

Row | Compound | IC50
1 | CCCc1nc2c(C)cc(C(=O)NCCN3CCCCC3)cc2n1Cc1ccc(-c2ccccc2C(=O)Nc2nnn[nH]2)cc1 | 67.5 nM
2 | CCCNC(=O)c1cc(C)c2nc(CCC)n(Cc3ccc(-c4ccccc4C(=O)Nc4nnn[nH]4)cc3)c2c1 | 363 nM
3 | CCCc1nc2c(C)cc(C(=O)NCc3ccccc3)cc2n1Cc1ccc(-c2ccccc2C(=O)Nc2nnn[nH]2)cc1 | 82 nM
4 | CCCc1nc2c(C)cc(C(=O)NCc3ccccc3OC)cc2n1Cc1ccc(-c2ccccc2C(=O)Nc2nnn[nH]2)cc1 | 73.3 nM
5 | CCCc1nc2c(C)cc(C(=O)NCCc3ccc(F)cc3)cc2n1Cc1ccc(-c2ccccc2C(=O)Nc2nnn[nH]2)cc1 | 140 nM
6 | CCCc1nc2c(C)cc(C(=O)NC(C)C)cc2n1Cc1ccc(-c2ccccc2C(=O)Nc2nnn[nH]2)cc1 | 161 nM
7 | CCCc1nc2c(C)cc(C(=O)NCc3ccc(OC)cc3)cc2n1Cc1ccc(-c2ccccc2C(=O)Nc2nnn[nH]2)cc1 | 550 nM
8 | CCCc1nc2c(C)cc(C(=O)Nc3ccccc3)cc2n1Cc1ccc(-c2ccccc2C(=O)Nc2nnn[nH]2)cc1 | 73.7 nM
9 | CCCc1nc2c(C)cc(C(=O)Nc3ccccc3OC)cc2n1Cc1ccc(-c2ccccc2C(=O)Nc2nnn[nH]2)cc1 | 347 nM
10 | CCCc1nc2c(C)cc(C(=O)NCCc3ccccc3F)cc2n1Cc1ccc(-c2ccccc2C(=O)Nc2nnn[nH]2)cc1 | 90 nM
11 | CCCc1nc2c(C)cc(C(=O)NC(C)(C)C)cc2n1Cc1ccc(-c2ccccc2C(=O)Nc2nnn[nH]2)cc1 | 390 nM
12 | CCCc1nc2c(C)cc(C(=O)NCCc3ccc(OC)cc3)cc2n1Cc1ccc(-c2ccccc2C(=O)Nc2nnn[nH]2)cc1 | 87.8 nM
13 | CCCc1nc2c(C)cc(C(=O)NCCc3ccc(OC)c(OC)c3)cc2n1Cc1ccc(-c2ccccc2C(=O)Nc2nnn[nH]2)cc1 | 93 nM
14 | CCCCNC(=O)c1cc(C)c2nc(CCC)n(Cc3ccc(-c4ccccc4C(=O)Nc4nnn[nH]4)cc3)c2c1 | 439 nM
15 | CCCc1nc2c(C)cc(C(=O)NCCN3CCCC3)cc2n1Cc1ccc(-c2ccccc2C(=O)Nc2nnn[nH]2)cc1 | 69.4 nM

Results, then the molecule that gave them:

Row | IC50 | Compound
16 | 53.9 nM | CCCc1nc2c(C)cc(C(=O)NCc3cccc(OC)c3)cc2n1Cc1ccc(-c2ccccc2C(=O)Nc2nnn[nH]2)cc1
17 | 53.5 nM | CCCc1nc2c(C)cc(C(=O)NCCN3CCN(C)CC3)cc2n1Cc1ccc(-c2ccccc2C(=O)Nc2nnn[nH]2)cc1
18 | 44 nM | CCCc1nc2c(C)cc(C(=O)NCCN3CCOCC3)cc2n1Cc1ccc(-c2ccccc2C(=O)Nc2nnn[nH]2)cc1
19 | 36.9 nM | CCCc1nc2c(C)cc(C(=O)NCCc3cccc(OC)c3)cc2n1Cc1ccc(-c2ccccc2C(=O)Nc2nnn[nH]2)cc1
20 | 32.9 nM | CCCc1nc2c(C)cc(C(=O)NCc3ccc(OC)c(OC)c3)cc2n1Cc1ccc(-c2ccccc2C(=O)Nc2nnn[nH]2)cc1
21 | 30.7 nM | CCCc1nc2c(C)cc(C(=O)NCCc3cc(OC)ccc3OC)cc2n1Cc1ccc(-c2ccccc2C(=O)Nc2nnn[nH]2)cc1
22 | 26.1 nM | CCCc1nc2c(C)cc(C(=O)NCCc3ccccc3OC)cc2n1Cc1ccc(-c2ccccc2C(=O)Nc2nnn[nH]2)cc1
23 | 3.9 nM | CCCc1nc2c(C)cc(C(=O)NCCc3ccccc3)cc2n1Cc1ccc(-c2ccccc2C(=O)Nc2nnn[nH]2)cc1

Biological target: T2, Endothelin-1 receptor (Homo sapiens, UniProt P25101)
T2 sequence (P25101 whole entry): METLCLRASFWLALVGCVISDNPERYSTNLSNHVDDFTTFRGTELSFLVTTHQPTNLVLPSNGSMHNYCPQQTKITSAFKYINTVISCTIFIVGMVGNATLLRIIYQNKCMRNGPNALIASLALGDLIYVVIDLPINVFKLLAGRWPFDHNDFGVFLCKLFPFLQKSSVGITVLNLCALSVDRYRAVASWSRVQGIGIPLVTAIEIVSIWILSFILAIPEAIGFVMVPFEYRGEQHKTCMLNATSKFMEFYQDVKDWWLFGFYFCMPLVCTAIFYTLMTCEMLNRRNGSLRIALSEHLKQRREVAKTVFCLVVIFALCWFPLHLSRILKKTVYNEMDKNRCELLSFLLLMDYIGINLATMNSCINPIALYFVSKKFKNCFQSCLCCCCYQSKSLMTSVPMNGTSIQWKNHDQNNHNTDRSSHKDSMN
Assay: Displacement of 125I-labelled endothelin-1 from human ETA receptor expressed in CHOK1 cell membranes
Parameters: species or system CHO-K1

Row | Compound | IC50
24 | CCCc1nc2c(C)cc(C(=O)NCCN3CCCCC3)cc2n1Cc1ccc(-c2ccccc2C(=O)Nc2nnn[nH]2)cc1 | > 20000 nM
25 | CCCNC(=O)c1cc(C)c2nc(CCC)n(Cc3ccc(-c4ccccc4C(=O)Nc4nnn[nH]4)cc3)c2c1 | > 20000 nM
26 | CCCc1nc2c(C)cc(C(=O)NCc3ccccc3)cc2n1Cc1ccc(-c2ccccc2C(=O)Nc2nnn[nH]2)cc1 | 10 nM
27 | CCCc1nc2c(C)cc(C(=O)NCc3ccccc3OC)cc2n1Cc1ccc(-c2ccccc2C(=O)Nc2nnn[nH]2)cc1 | 7200 nM
28 | CCCc1nc2c(C)cc(C(=O)NCCc3ccc(F)cc3)cc2n1Cc1ccc(-c2ccccc2C(=O)Nc2nnn[nH]2)cc1 | > 20000 nM
29 | CCCc1nc2c(C)cc(C(=O)NC(C)C)cc2n1Cc1ccc(-c2ccccc2C(=O)Nc2nnn[nH]2)cc1 | > 20000 nM
30 | CCCc1nc2c(C)cc(C(=O)NCc3ccc(OC)cc3)cc2n1Cc1ccc(-c2ccccc2C(=O)Nc2nnn[nH]2)cc1 | > 20000 nM
31 | CCCc1nc2c(C)cc(C(=O)Nc3ccccc3)cc2n1Cc1ccc(-c2ccccc2C(=O)Nc2nnn[nH]2)cc1 | 14000 nM
32 | CCCc1nc2c(C)cc(C(=O)Nc3ccccc3OC)cc2n1Cc1ccc(-c2ccccc2C(=O)Nc2nnn[nH]2)cc1 | 886 nM
33 | CCCc1nc2c(C)cc(C(=O)NCCc3ccccc3F)cc2n1Cc1ccc(-c2ccccc2C(=O)Nc2nnn[nH]2)cc1 | 11000 nM
34 | CCCc1nc2c(C)cc(C(=O)NC(C)(C)C)cc2n1Cc1ccc(-c2ccccc2C(=O)Nc2nnn[nH]2)cc1 | > 20000 nM
35 | CCCc1nc2c(C)cc(C(=O)NCCc3ccc(OC)cc3)cc2n1Cc1ccc(-c2ccccc2C(=O)Nc2nnn[nH]2)cc1 | 13000 nM
36 | CCCc1nc2c(C)cc(C(=O)NCCc3ccc(OC)c(OC)c3)cc2n1Cc1ccc(-c2ccccc2C(=O)Nc2nnn[nH]2)cc1 | > 20000 nM
37 | CCCCNC(=O)c1cc(C)c2nc(CCC)n(Cc3ccc(-c4ccccc4C(=O)Nc4nnn[nH]4)cc3)c2c1 | > 20000 nM
38 | CCCc1nc2c(C)cc(C(=O)NCCN3CCCC3)cc2n1Cc1ccc(-c2ccccc2C(=O)Nc2nnn[nH]2)cc1 | 7100 nM

More lines, now with the values ahead:

Row | IC50 | Compound
39 | 625 nM | CCCc1nc2c(C)cc(C(=O)NCc3cccc(OC)c3)cc2n1Cc1ccc(-c2ccccc2C(=O)Nc2nnn[nH]2)cc1
40 | 9100 nM | CCCc1nc2c(C)cc(C(=O)NCCN3CCN(C)CC3)cc2n1Cc1ccc(-c2ccccc2C(=O)Nc2nnn[nH]2)cc1
41 | 165 nM | CCCc1nc2c(C)cc(C(=O)NCCN3CCOCC3)cc2n1Cc1ccc(-c2ccccc2C(=O)Nc2nnn[nH]2)cc1
42 | > 20000 nM | CCCc1nc2c(C)cc(C(=O)NCCc3cccc(OC)c3)cc2n1Cc1ccc(-c2ccccc2C(=O)Nc2nnn[nH]2)cc1
43 | 10000 nM | CCCc1nc2c(C)cc(C(=O)NCc3ccc(OC)c(OC)c3)cc2n1Cc1ccc(-c2ccccc2C(=O)Nc2nnn[nH]2)cc1
44 | > 20000 nM | CCCc1nc2c(C)cc(C(=O)NCCc3cc(OC)ccc3OC)cc2n1Cc1ccc(-c2ccccc2C(=O)Nc2nnn[nH]2)cc1
45 | 7000 nM | CCCc1nc2c(C)cc(C(=O)NCCc3ccccc3OC)cc2n1Cc1ccc(-c2ccccc2C(=O)Nc2nnn[nH]2)cc1
46 | 126 nM | CCCc1nc2c(C)cc(C(=O)NCCc3ccccc3)cc2n1Cc1ccc(-c2ccccc2C(=O)Nc2nnn[nH]2)cc1

Test system: Rattus norvegicus
Assay: Antihypertensive activity in spontaneous hypertensive rat assessed as mean blood pressure at 20 mg/kg, po after 6 hrs
Format: functional

Row | Compound | Activity
47 | CCCc1nc2c(C)cc(C(=O)NCCc3ccccc3)cc2n1Cc1ccc(-c2ccccc2C(=O)Nc2nnn[nH]2)cc1 | 24 mmHg

Test system: Rattus norvegicus
Assay: Antihypertensive activity in spontaneous hypertensive rat assessed as heart rate at 20 mg/kg, po after 1 to 24 hrs
Format: functional, organism-based

Row | Compound | Activity
48 | CCCCC1=NC2(CCCC2)C(=O)N1Cc1ccc(-c2ccccc2-c2nnn[nH]2)cc1 [IRBESARTAN] | Active
49 | CCCc1nc2c(C)cc(C(=O)NCCc3ccccc3)cc2n1Cc1ccc(-c2ccccc2C(=O)Nc2nnn[nH]2)cc1 | Active

Test system: Rattus norvegicus
Assay: Antihypertensive activity in spontaneous hypertensive rat assessed as mean blood pressure at 20 mg/kg, po after 4 hrs
Format: functional

Row | Compound | Activity
50 | CCCCC1=NC2(CCCC2)C(=O)N1Cc1ccc(-c2ccccc2-c2nnn[nH]2)cc1 [IRBESARTAN] | 20 mmHg

Test system: Rattus norvegicus
Assay: Antihypertensive activity in spontaneous hypertensive rat assessed as mean blood pressure at 20 mg/kg, po after 24 hrs
Format: functional, organism-based

Row | Compound | Activity
51 | CCCCC1=NC2(CCCC2)C(=O)N1Cc1ccc(-c2ccccc2-c2nnn[nH]2)cc1 [IRBESARTAN] | Active
52 | CCCc1nc2c(C)cc(C(=O)NCCc3ccccc3)cc2n1Cc1ccc(-c2ccccc2C(=O)Nc2nnn[nH]2)cc1 | Active

Test system: Rattus norvegicus
Assay: Antihypertensive activity in spontaneous hypertensive rat assessed as time duration of lowering mean blood pressure >20 mmHg at 20 mg/kg, po
Format: functional

Row | Compound | Time
53 | CCCCC1=NC2(CCCC2)C(=O)N1Cc1ccc(-c2ccccc2-c2nnn[nH]2)cc1 [IRBESARTAN] | 1 h
54 | CCCc1nc2c(C)cc(C(=O)NCCc3ccccc3)cc2n1Cc1ccc(-c2ccccc2C(=O)Nc2nnn[nH]2)cc1 | 4 h
